“And” between values parts separate entries of the source, which are not always exact repeats. Identical values can stand only once.
Legend:
HCT-116 = experiment: Inhibitory concentration in vitro against HCT116 human colon cancer cells were determined for 72 h; type: functional, cell-based; details: HCT-116, 72 h
Colon cancer cell line [1] = experiment: In vivo activity as average tumor weight on day 22/average tumor weight in control group on day 22*100; drug administered intra venously; type: functional, Homo sapiens
Colon cancer cell line [2] = experiment: In vivo activity as average tumor weight on day 22/average tumor weight in control group on day 22*100; drug administered intraperitoneal; type: functional, Homo sapiens
Colon cancer cell line [3] = experiment: In vivo activity as average tumor volume on day 9/average tumor volume on day 1; drug administered intra venously; type: functional, Homo sapiens
Colon cancer cell line [4] = experiment: In vivo activity as average tumor volume on day 9/average tumor volume on day 1; drug administered intraperitoneal; type: functional, Homo sapiens
Mus musculus = species on record: Mus musculus; experiment: Number of deaths per total number of aminals tested; 0/5; type: functional
Colon cancer cell line [5] = experiment: In vivo activity as average tumor weight on day 22/average tumor weight in control group on day 22*100; drug administered per oral; type: functional, Homo sapiens
Colon cancer cell line [6] = experiment: In vivo activity as average tumor volume on day 9/average tumor volume on day 1; drug administered per oral; type: functional, Homo sapiens
Colon cancer cell line [7] = experiment: In vivo activity as average tumor volume on day 9/average tumor volume on day 1 drug administered per oral; type: functional, Homo sapiens

Compound | IC50 (HCT-116) | Day 22-T/C (Colon cancer cell line [1]) | Day 22-T/C (Colon cancer cell line [2]) | Day 9-RTV (Colon cancer cell line [3]) | Day 9-RTV (Colon cancer cell line [4]) | Deaths/total (Mus musculus) | Day 22-T/C (Colon cancer cell line [5]) | Day 9-RTV (Colon cancer cell line [6]) | Day 9-RTV (Colon cancer cell line [7])
NS(=O)(=O)c1ccc(S(=O)(=O)Nc2cccc3c(Cl)c[nH]c23)cn1 | 290 nM | 8% | 12% and 23% | 0.15 | 0.1 and 0.29 | 0% |  |  | 
CNc1ccc(S(=O)(=O)Nc2cccc3c(Cl)c[nH]c23)cn1 | 860 nM |  | 38% |  | 0.24 | 0% |  |  | 
O=S(=O)(Nc1cccc2c(Cl)c[nH]c12)c1ccc(NCCO)nc1 | 650 nM |  | 89% |  | 4.3 | 0% |  |  | 
O=S(=O)(Nc1cccc2c(Cl)c[nH]c12)c1cccnc1 | 260 nM |  | 70% |  | 3.4 | 0% |  |  | 
CC(C)Nc1ccc(S(=O)(=O)Nc2cccc3c(Cl)c[nH]c23)cn1 | 1300 nM |  |  |  | 0.28 and 0.9 | 0% |  |  | 
O=S(=O)(Nc1cccc2c(Cl)c[nH]c12)c1ccc(O)nc1 | 800 nM |  | 66% |  | 3 | 0% |  |  | 
Cc1cncc(S(=O)(=O)Nc2cccc3c(Cl)c[nH]c23)c1 | 220 nM |  | 82% |  | 3.7 | 0% |  |  | 
Cc1cncc(S(=O)(=O)Nc2cccc3c(C#N)c[nH]c23)c1 | 190 nM |  | 30% |  | 0.52 | 0% | 106% | 3.4 | 
Nc1ccc(S(=O)(=O)Nc2cccc3c(Cl)c[nH]c23)cn1 | 710 nM |  | 26% |  | 0.3 | 0% | 12% | 0.19 | 
N#Cc1c[nH]c2c(NS(=O)(=O)c3ccc(N)nc3)cccc12 | 640 nM |  | 35% |  | 1.5 | 0% | 75% |  | 2.3
N#Cc1c[nH]c2c(NS(=O)(=O)c3cccnc3)cccc12 | 230 nM |  | 65% |  | 2.6 | 0% |  |  | 

Reference: ChEMBL document CHEMBL1134854, “Synthesis and biological evaluation of N-(7-indolyl)-3-pyridinesulfonamide derivatives as potent antitumor agents” (Bioorg Med Chem Lett, 2002)
